For data set [1], the system named is Bird. As to conditions: reproductive; oral; feed.
The test system of data set [2] is Pimephales promelas. The conditions noted are these: chronic/long-term; duration: 35 days; growth.
In data set [3] the test system is Colinus virginianus. The conditions noted are these: acute, oral, mortality.
Data set [4] concerns Apis mellifera. The conditions noted are these: acute, mortality.
Data set [5] has as its system Tagia sp. As to conditions: acute; duration: 14 days; mortality.
In data set [6] the test system is Bibionidae. As to conditions: chronic/long-term, duration: 28 days.
Data set [7] has as its system Aphidius rhopalosiphi. As to conditions: acute; duration: 7 days; mortality.
Data set [8] deals with Oncorhynchus mykiss. As to conditions: acute; duration: 96 hours; mortality.
The test system of data set [9] is Daphnia magna. The conditions noted are these: chronic/long-term; duration: 21 days; reproduction.
Data set [10] has as its system Rattus norvegicus.

SMILES strings stand for the structures. Converted amounts (≈) assume the structure as drawn.

The source of these data is EPA's ToxValDB 9.5 (doi:10.2903/j.efsa.2005.28r).

The LOAEL is the lowest tested level that showed an adverse finding. As usually defined, the NOAEL is the highest tested level that showed no adverse finding. In the case of `CCCN(CCC)c1c([N+](=O)[O-])cc(C(F)(F)F)cc1[N+](=O)[O-]` [Trifluralin], the NOEC was 1000 mg/kg in [1]; 0.0003 mg/L in data set [2]; 0.25 mg/L in [6] (development); 810 mg/kg in data set [6] (mortality); 0.0507 mg/L in data set [9]. Further, the values for the LC50 in data set [3] (diet), in [5] and in data set [8] were 2970 mg/kg, greater than 1000 mg/kg and 0.088 µg/mL (≈ 0.262 µM), respectively. The LD50 is greater than 2250 mg/kg in data set [3]; greater than 100 µg/piece in data set [4] (duration: 48 hours, dermal); greater than 100 µg/piece in [4] (oral, unspecified); greater than 5000 mg/kg in [10] (acute, oral, mortality). The LEL in [7] is 1200 g/ha. Also, in data set [10] (chronic, duration: 2 years, histopathology: neoplastic), the LOAEL amounted to 30 mg/kg-day. The NOAEL stood at 148 mg/kg-day in data set [10] (reproduction developmental) and 2.6 mg/kg-day in [10] (subchronic, duration: 90 days).
